Experiment [1] has as its system MDA-MB-231 breast cancer cells. The experiment is described as follows: Tumor selectivity from MTT-based viability (tumor vs non-tumor cells). The format is cell-based, human. An excerpt: (§1) Variations in tumor selectivity among the predicted tumor-suppressing proteins. Tumor-suppressing proteins may inhibit the progression of tumor cells but not inhibit the progression of non-tumor cells. Using the MTT-based viability, tumor selectivity was defined as a ratio of (reduction in MTT-based viability of tumor cells) to (reduction in MTT-based viability of non-tumor cells). The tumor selectivity may be above one to remove tumor cells and a larger value may signify a reduction in the inhibition of the growth of non-tumor cells. The tumor selectivity was determined using three tumor cells (4T1.2 mouse mammary tumor cells, EO771 mammary tumor cells, and MDA-MB-231 breast cancer cells) and three non-tumor cells (adipose cells, MLO-A5 osteocytes, and murine MSCs). […] Table 2 provides the tumor selectivity of 4T1.2 Oct4 CM, 4T1.2 c-Myc CM, and 10 tumor-suppressing protein candidates.

Experiment [2] deals with EO771 mammary tumor cells. The description is as above. The format is cell-based, mouse. Conditions: tumor cells EO.
Description: as §1

The test system of experiment [3] is 4T1.2 mouse mammary tumor cells. Described as above. The format is cell-based.
Description: as §1

Experiment [4] has as its system EO771 mammary tumor cells. Kind of experiment: Wound-healing scratch assay. Type of experiment: cell-based, mouse. The following applies: inhibitor applied with iTS CM. As to the method: Two-dimensional motility assay. A wound-healing scratch motility assay was performed to measure 2-dimensional cell motility. Cells were seeded in 12-well plates, after cell attachment, a plastic pipette tip was used to scratch a gap on the cell layer. Images of the cell-free scratch zone were obtained via an inverted microscope at 0 h, and the areas newly occupied with cells were determined 48 h after scratching. The areas were quantified with Image J (National Institutes of Health, Maryland, USA).
Scratch assay. A wound-healing scratch assay was conducted to evaluate 2-dimensional migratory behavior. Approximately 4×10^5 cells were seeded in 12-well plates. After cell attachment, a plastic pipette tip was used to scratch a gap on the cell layer. After the removal of the floating cells, CM was added. Images of the cell-free scratch zone were collected at 0 h, and the areas newly occupied with cells were determined 24-48 h after scratching. The areas were quantified with IMAGE J™ (National Institutes of Health, Bethesda, MD, USA).

For experiment [5], the system named is EO771 mammary tumor cells. Kind of experiment: TRANSWELL invasion assay. Type of experiment: cell-based, mouse. Conditions: inhibitor applied with iTS CM. The procedure:
Invasion assay. The invasion capacity of cancer cells was determined using a 24-well plate, TRANSWELL® chambers (Thermo Fisher Scientific, Waltham, MA, USA) with […] pore size and MATRIGEL™. Cell invasion was measured in TRANSWELL® chambers with a coating including MATRIGEL™ (100 μg/ml). The cells in 200 μL serum-free DMEM were placed on the upper chamber and 800 μL iTS CM was added in the lower chamber. After 24 h, the cells that had invaded the lower side of the membrane were stained with Crystal Violet. At least five randomly chosen images were taken under a microscope, and the average number of stained cells that represented the relative invasion was determined.

Experiment [6] relates to EO771 cells. Kind of experiment: Western blot analysis. Type of experiment: cell-based, mouse. As to the method: Western blot analysis. Cultured cells were lysed in a radio-immunoprecipitation assay buffer with protease inhibitors (Santa Cruz Biotechnology, Santa Cruz, CA, USA) and phosphatase inhibitors (Calbiochem, Billerica, MA, USA). After cell lysis, proteins were fractionated by 10-15% SDS gels and electro-transferred to polyvinylidene difluoride (“PVDF”) transfer membranes (Millipore, Billerica, MA, USA). After blocking 1 h with a blocking buffer (Bio-Rad), the membrane was incubated overnight with primary antibodies and then with secondary antibodies conjugated with horseradish peroxidase for 45 min (Cell Signaling, Danvers, MA, USA). Antibodies against β-catenin, cleaved-caspase 3, Runx2, Snail, Enolase-1 (Cell Signaling, Danvers, MA, USA), MMP9 (Santa Cruz, Dallas, TX, USA), TRAIL (Novus, Centennial, CO, USA), p53 (Invitrogen, Carlsbad, CA, USA), and β-actin as a control (Sigma, St. Louis, MO, USA), were employed. The level of proteins was determined using a SUPERSIGNAL™ west femto maximum sensitivity substrate (Thermo Scientific, Waltham, MA, USA), and a luminescent image analyzer (LAS-3000, Fuji Film, Tokyo, Japan) was used to quantify signal intensities.
(In general: In western blotting, separated proteins are transferred to a membrane and probed.)

On to “Flna: recombinant protein, tumor-suppressing protein candidate”, for which the Tumor selectivity in experiment [1] (non-tumor cells A5) is 1.54; in experiment [1] (non-tumor cells Adipose) it was 1.28; in experiment [1] (non-tumor cells MSC), 1.13; in experiment [2] (non-tumor cells A5), 1.97; in experiment [2] (non-tumor cells Adipose) it was 1.64; in experiment [2] (non-tumor cells MSC), 1.45. The results for the Tumor selectivity in experiment [3] (non-tumor cells A5), in experiment [3] (non-tumor cells Adipose) and in experiment [3] (non-tumor cells MSC) were 1.43, 1.19 and 1.05, respectively.
Turning to “Myh9: recombinant protein, tumor-suppressing protein candidate”, the Tumor selectivity was 0.23 in experiment [1] (non-tumor cells A5); 0.46 in experiment [1] (non-tumor cells Adipose); 0.66 in experiment [1] (non-tumor cells MSC); 0.32 in experiment [2] (non-tumor cells A5); 0.64 in experiment [2] (non-tumor cells Adipose); 0.93 in experiment [2] (non-tumor cells MSC). Besides, the Tumor selectivity in experiment [3] (non-tumor cells A5) is recorded as 0.25; in experiment [3] (non-tumor cells Adipose), 0.48; in experiment [3] (non-tumor cells MSC), 0.70.
As for `NCCOCCOCCNC(=O)Cc1ccc(Nc2nc(NCc3ccc(F)cc3)nc(NCC3CCCCC3)n2)cc1` [AP-III-a4, reference compound], the “inhibitory effect of β-catenin-overexpressing iTS CM on migration” value in experiment [4] is “suppressed the inhibitory effect”. The “inhibitory effect of β-catenin-overexpressing iTS CM on invasion” value in experiment [5] is “suppressed the inhibitory effect”.
Turning to “Plec: recombinant protein, tumor-suppressing protein candidate”, the Tumor selectivity in experiment [1] (non-tumor cells A5) was 1.16; in experiment [1] (non-tumor cells Adipose), 1.10; in experiment [1] (non-tumor cells MSC), 0.91; in experiment [2] (non-tumor cells A5), 1.95; in experiment [2] (non-tumor cells Adipose), 1.86; in experiment [2] (non-tumor cells MSC), 1.54. Further, the Tumor selectivity in experiment [3] (non-tumor cells A5) is reported as 1.33; in experiment [3] (non-tumor cells Adipose), 1.28; in experiment [3] (non-tumor cells MSC) it was 1.06.

B1: Eef1a1: recombinant protein, tumor-suppressing protein candidate (protein, UniProt P10126 2-462, looked up)
Elongation factor 1-alpha 1: GKEKTHINIVVIGHVDSGKSTTTGHLIYKCGGIDKRTIEKFEKEAAEMGKGSFKYAWVLDKLKAERERGITIDISLWKFETSKYYVTIIDAPGHRDFIKNMITGTSQADCAVLIVAAGVGEFEAGISKNGQTREHALLAYTLGVKQLIVGVNKMDSTEPPYSQKRYEEIVKEVSTYIKKIGYNPDTVAFVPISGWNGDNMLEPSANMPWFKGWKVTRKDGSASGTTLLEALDCILPPTRPTDKPLRLPLQDVYKIGGIGTVPVGRVETGVLKPGMVVTFAPVNVTTEVKSVEMHHEALSEALPGDNVGFNVKNVSVKDVRRGNVAGDSKNDPPMEAAGFTAQVIILNHPGQISAGYAPVLDCHTAHIACKFAELKEKIDRRSGKKLEDGPKFLKSGDAAIVDMVPGKPMCVESFSDYPPLGRFAVRDMRQTVAVGVIKAVDKKAAGAGKVTKSAQKAQKAK
As for B1, the Tumor selectivity in experiment [1] (non-tumor cells A5) is given as 0.86; in experiment [1] (non-tumor cells Adipose), 0.52; in experiment [1] (non-tumor cells MSC), 0.94; in experiment [2] (non-tumor cells A5), 0.96; in experiment [2] (non-tumor cells Adipose), 0.58; in experiment [2] (non-tumor cells MSC), 1.05. The Tumor selectivity in experiment [3] (non-tumor cells A5) was 1.23; in experiment [3] (non-tumor cells Adipose), 0.74; in experiment [3] (non-tumor cells MSC), 1.34.

B2: Aldoa: recombinant protein, tumor-suppressing protein candidate (protein, UniProt P05064 2-364, looked up)
Fructose-bisphosphate …: PHPYPALTPEQKKELSDIAHRIVAPGKGILAADESTGSIAKRLQSIGTENTEENRRFYRQLLLTADDRVNPCIGGVILFHETLYQKADDGRPFPQVIKSKGGVVGIKVDKGVVPLAGTNGETTTQGLDGLSERCAQYKKDGADFAKWRCVLKIGEHTPSALAIMENANVLARYASICQQNGIVPIVEPEILPDGDHDLKRCQYVTEKVLAAVYKALSDHHVYLEGTLLKPNMVTPGHACTQKFSNEEIAMATVTALRRTVPPAVTGVTFLSGGQSEEEASINLNAINKCPLLKPWALTFSYGRALQASALKAWGGKKENLKAAQEEYIKRALANSLACQGKYTPSGQSGAAASESLFISNHAY
In the case of B2, the Tumor selectivity came to 1.75 in experiment [1] (non-tumor cells A5); 1.97 in experiment [1] (non-tumor cells Adipose); 0.90 in experiment [1] (non-tumor cells MSC); 1.87 in experiment [2] (non-tumor cells A5); 2.10 in experiment [2] (non-tumor cells Adipose); 0.96 in experiment [2] (non-tumor cells MSC). The Tumor selectivity in experiment [3] (non-tumor cells A5) amounted to 2.72; in experiment [3] (non-tumor cells Adipose), 3.06; in experiment [3] (non-tumor cells MSC), 1.39.

B3: TRAIL: an apoptosis-inducing factor applied to EO771 tumor cells (protein, UniProt P50592 1-291, looked up)
Tumor necrosis factor ligand …: MPSSGALKDLSFSQHFRMMVICIVLLQVLLQAVSVAVTYMYFTNEMKQLQDNYSKIGLACFSKTDEDFWDSTDGEILNRPCLQVKRQLYQLIEEVTLRTFQDTISTVPEKQLSTPPLPRGGRPQKVAAHITGITRRSNSALIPISKDGKTLGQKIESWESSRKGHSFLNHVLFRNGELVIEQEGLYYIYSQTYFRFQEAEDASKMVSKDKVRTKQLVQYIYKYTSYPDPIVLMKSARNSCWSRDAEYGLYSIYQGGLFELKKNDRIFVSVTNEHLMDLDQEASFFGAFLIN
Turning to B3, in experiment [6], the “level of cleaved caspase 3” value was “increased”.

Values taken from patent US20240082313A1, “PHARMACEUTICAL COMPOSITIONS AND THEIR METHODS OF USE” (The Trustees of Indiana University, priority 2021, published 2024).
